Data on 29 compounds can be found in PubChem BioAssay (NCI).

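Exposure lasted 48 hours, with cells grown in 96-well plates and compounds tested at five concentrations. TGI is the concentration that stops growth completely.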

The first assay relates to KM12 colon. In words: DTP human tumour cell line panel, 48 h.
By TGI is commonly meant the concentration at which net growth stops. Low readings indicate more potent growth arrest, high ones less potent growth arrest. In turn, `c1ccc(N=c2snc(-c3ccccc3)s2)cc1` had a total growth inhibition concentration (TGI) of over 100 µM.
Still for that read-out and setting: under `OCc1ccccc1C1CSCSC1` stands over 100 µM; under `N#CC(C#N)=C1CCCS(=O)(=O)c2ccccc21`, over 100 µM.

In a further assay the test system is DU-145 prostate. Put plainly: DTP human tumour cell line panel, 48 h.
Regarding `Cc1oc2nc(N(C)C)n3nnnc3c2c1C`, the TGI was over 100 µM.
Regarding `C[C@@H]1C[C@H](O)[C@]2(O)O[C@@H]3C[C@@]4(C=O)[C@@H](CC=C5[C@@H]4CC[C@]4(C)[C@@H](C6=CC(=O)OC6)CC[C@]54O)C[C@H]3O[C@@H]2O1`, the TGI was found to be 0.0384 µM.
Still for that read-out and setting: then `Cc1nc(Cl)c(CBr)c(Cl)n1`, with 8.33 µM; and `COc1ccc2c(c1)C(=O)c1ccccc1C2`, with 35 µM.
In the case of `O=c1nc2c(c(-c3cccc(Cl)c3)[nH]1)COC/C2=C\c1cccc(Cl)c1`, the total growth inhibition concentration (TGI) is over 100 µM.
For `CC(C)/C(Cl)=N\OC(=O)NNc1ccccc1`, the TGI is over 100 µM.
For `CN(O)C(=O)Cc1ccc(OCc2cccc(Cl)c2)cc1`, the total growth inhibition concentration (TGI) was over 100 µM.
Still for that read-out and setting: under `CC1=CC(=O)N(n2c(C)n[nH]c2=O)C1=O` stands over 100 µM; under `CCN(CCCN(CC)C(=O)N[C@@H](Cc1ccccc1)C(=O)NC)C(=O)N[C@@H](Cc1ccccc1)C(=O)NC`, over 100 µM; under `C(=Nc1ccc(-c2nc3ccccc3s2)cc1)c1ccco1`, over 100 µM.
The compound `COC(=O)C1CC(C=[N+](C)C)=C(SC)N1` (centres undefined) gave a TGI of over 100 µM.
On the same count and under the same terms, under `O=c1c2cc(I)ccc2[nH]c(=S)n1Cc1ccccc1` stands over 100 µM.
Still for that read-out and setting: then `COc1cccc(-c2nc(-c3cnccn3)n(Cc3ccccc3)n2)c1`, with over 100 µM; and `N#Cc1c(OCCF)c2ccccc2n2c1nc1ccccc12`, with over 100 µM; and `CC(=O)/C(=C/n1c(=S)sc2ccccc21)C(=O)Nc1ccccc1C`, with over 100 µM.
In turn, `O=C(CCc1ccc(O)cc1)c1c(O)cc(O)cc1OC1OC(CO)C(O)C(O)C1O` (centres undefined) came in with a TGI of over 100 µM.
`CCOC(=O)C1CC(O)C(=O)N1C` (centres undefined) yielded a TGI of over 100 µM.
`COc1cccc(C2c3cc4c(cc3OC(N3CCCC3)C2C)OCO4)c1OC` (centres undefined) gave a total growth inhibition concentration (TGI) of 11.5 µM.
The same measure, in the same setting: then `N#CC(C#N)=C1CCCS(=O)(=O)c2ccccc21`, with over 100 µM.

In the next assay the test system is MALME-3M melanoma. Put plainly: DTP human tumour cell line panel, 48 h.
On to `C=CCCCC12CCCc3cccc(c31)NC2=O` (centres undefined), for which the total growth inhibition concentration (TGI) came out at 30.2 µM.
Consider `C[C@@H]1C[C@H](O)[C@]2(O)O[C@@H]3C[C@@]4(C=O)[C@@H](CC=C5[C@@H]4CC[C@]4(C)[C@@H](C6=CC(=O)OC6)CC[C@]54O)C[C@H]3O[C@@H]2O1`, for which the total growth inhibition concentration (TGI) worked out at 0.0532 µM.
Same read-out and setting: then `Cc1nc(Cl)c(CBr)c(Cl)n1`, with 2.92 µM; and `N#CSCc1cccc(Nc2cc(=O)[nH]c(=O)[nH]2)c1`, with over 100 µM.
In turn, `O=C1C(Cl)N(c2ccccc2)C1c1c[nH]c2ccccc12` (centres undefined) had a TGI of over 100 µM.
`CC(C)/C(Cl)=N\OC(=O)NNc1ccccc1` registered a total growth inhibition concentration (TGI) of 38.3 µM.
Same read-out and setting: under `Cc1nc2nnc(C)n2c2c1C(=O)Nc1ccccc1N2` stands over 100 µM; under `O=C(OCc1ccccc1)OOC(=O)OCc1ccccc1`, over 100 µM.
Same read-out and setting: under `CC1=CC(=O)N(n2c(C)n[nH]c2=O)C1=O` stands over 100 µM; under `CCN(CCCN(CC)C(=O)N[C@@H](Cc1ccccc1)C(=O)NC)C(=O)N[C@@H](Cc1ccccc1)C(=O)NC`, over 100 µM.
Turning to `C(=Nc1ccc(-c2nc3ccccc3s2)cc1)c1ccco1`, the TGI was over 100 µM.
As for `Cc1cc2cccc(Cl)c2nc1C(=O)c1ccccc1`, the total growth inhibition concentration (TGI) was over 100 µM.
`COC(=O)C1CC(C=[N+](C)C)=C(SC)N1` (centres undefined) had a TGI of over 100 µM.
Compound `CC(=O)Nc1ccc(Cl)c(Cl)c1` yielded a total growth inhibition concentration (TGI) of over 100 µM.
Still for that read-out and setting: then `O=C(CCc1ccc(O)cc1)c1c(O)cc(O)cc1OC1OC(CO)C(O)C(O)C1O` (centres undefined), with over 100 µM; and `CC(C)=CC1C(C(=O)O)C1(C)C` (centres undefined), with over 750 µM.
For `c1ccc(N=c2snc(-c3ccccc3)s2)cc1`, the TGI is over 100 µM.
The same measure, in the same setting: then `OCc1ccccc1C1CSCSC1`, with over 100 µM.

The subject of the next assay is TK-10 renal. In words: DTP human tumour cell line panel, 48 h.
For `C=CCCCC12CCCc3cccc(c31)NC2=O` (centres undefined), the total growth inhibition concentration (TGI) was determined as 42.4 µM.
For the compound `Cc1oc2nc(N(C)C)n3nnnc3c2c1C`, the total growth inhibition concentration (TGI) was over 100 µM.
In turn, `C[C@@H]1C[C@H](O)[C@]2(O)O[C@@H]3C[C@@]4(C=O)[C@@H](CC=C5[C@@H]4CC[C@]4(C)[C@@H](C6=CC(=O)OC6)CC[C@]54O)C[C@H]3O[C@@H]2O1` came in with a TGI of 0.186 µM.
As to `Cc1nc(Cl)c(CBr)c(Cl)n1`, the concentration for total growth inhibition (TGI) turned out to be 3.68 µM.
Still for that read-out and setting: then `N#CSCc1cccc(Nc2cc(=O)[nH]c(=O)[nH]2)c1`, with over 100 µM.
Turning to `COc1ccc2c(c1)C(=O)c1ccccc1C2`, the TGI was over 100 µM.
Take `O=C1C(Cl)N(c2ccccc2)C1c1c[nH]c2ccccc12` (centres undefined): the TGI was over 100 µM.
Still for that read-out and setting: under `O=c1nc2c(c(-c3cccc(Cl)c3)[nH]1)COC/C2=C\c1cccc(Cl)c1` stands over 100 µM.
Compound `CC(C)/C(Cl)=N\OC(=O)NNc1ccccc1` had a TGI of over 100 µM.
Same read-out and setting: then `Cc1nc2nnc(C)n2c2c1C(=O)Nc1ccccc1N2`, with over 100 µM; and `CN(O)C(=O)Cc1ccc(OCc2cccc(Cl)c2)cc1`, with over 100 µM; and `CC1=CC(=O)N(n2c(C)n[nH]c2=O)C1=O`, with over 100 µM.
Same read-out and setting: under `CCN(CCCN(CC)C(=O)N[C@@H](Cc1ccccc1)C(=O)NC)C(=O)N[C@@H](Cc1ccccc1)C(=O)NC` stands over 100 µM; under `C(=Nc1ccc(-c2nc3ccccc3s2)cc1)c1ccco1`, 8.51 µM.
Take `Cc1cc2cccc(Cl)c2nc1C(=O)c1ccccc1`: the TGI is over 100 µM.
As for `COC(=O)C1CC(C=[N+](C)C)=C(SC)N1` (centres undefined), the total growth inhibition concentration (TGI) was over 100 µM.
For `O=c1c2cc(I)ccc2[nH]c(=S)n1Cc1ccccc1`, the TGI was 42 µM.
Regarding `COc1cccc(-c2nc(-c3cnccn3)n(Cc3ccccc3)n2)c1`, the TGI was over 100 µM.
Compound `CC(=O)Nc1ccc(Cl)c(Cl)c1` yielded a TGI of over 100 µM.
For the compound `N#Cc1c(OCCF)c2ccccc2n2c1nc1ccccc12`, the concentration for total growth inhibition (TGI) is over 100 µM.
Same read-out and setting: under `CC(=O)/C(=C/n1c(=S)sc2ccccc21)C(=O)Nc1ccccc1C` stands over 100 µM; under `O=C(CCc1ccc(O)cc1)c1c(O)cc(O)cc1OC1OC(CO)C(O)C(O)C1O` (centres undefined), over 100 µM; under `CCOC(=O)C1CC(O)C(=O)N1C` (centres undefined), over 100 µM.
The same measure, in the same setting: then `COc1cccc(C2c3cc4c(cc3OC(N3CCCC3)C2C)OCO4)c1OC` (centres undefined), with over 100 µM.
`c1ccc(N=c2snc(-c3ccccc3)s2)cc1`: the TGI was over 100 µM.
Same read-out and setting: then `OCc1ccccc1C1CSCSC1`, with over 100 µM.
Take `N#CC(C#N)=C1CCCS(=O)(=O)c2ccccc21`: the TGI is over 100 µM.

Another assay deals with HOP-62 NSCLC. In words: DTP human tumour cell line panel, 48 h.
`C=CCCCC12CCCc3cccc(c31)NC2=O` (centres undefined) returned a TGI of over 100 µM.
Same read-out and setting: under `C[C@@H]1C[C@H](O)[C@]2(O)O[C@@H]3C[C@@]4(C=O)[C@@H](CC=C5[C@@H]4CC[C@]4(C)[C@@H](C6=CC(=O)OC6)CC[C@]54O)C[C@H]3O[C@@H]2O1` stands 0.0319 µM.
